Data on 20 compounds can be found in PubChem BioAssay AID504470 (NMMLSC, 2011).

Activity calls are given as the source filed them.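 Rule for the calls: active = EC50, the half-effect concentration on GFP expression, at most 33 µM; inactive = the rest.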

As a reminder, the EC50 is the concentration that produces a half-maximal response.

The test system of one assay is S. cerevisiae RPL19A-GFP strain, flow cytometry fluorescence, 3 h. Briefly: yeast RPL19A-GFP fluorescence modulation, SAR follow-up, cell-based, KU SAR set 2, kMESF flow cytometry, multiplex (AID 504470).
Conditions: not given
(A flow cytometer gives signals particle by particle.)
As to `CCNc1nc(NC2CCCCC2)c([N+](=O)[O-])c(N2CCOCC2)n1`, the EC50 is 70.5 µM (inactive).
Still for that read-out and setting: the result for `CNc1nc(N)c(C(=O)c2ccc(C)c(C)c2)c(Nc2cccc(Cl)c2)n1` reads 125 µM (inactive); that for `CNc1nc(N)cc(Nc2cccc(Cl)c2)n1`, 69.1 µM (inactive).

Test system in the next assay: not listed separately
Described as above. To be noted: S. cerevisiae RPL19A-GFP strain, flow cytometry fluorescence, 3 h; at 100 µM (top of the series).
Regarding `CNc1nc(N)c([N+](=O)[O-])c(Nc2ccccc2Br)n1`, the GFP fluorescence (kMESF) is 23.4% (inactive).
In the case of `CCNc1nc(N)c([N+](=O)[O-])c(Nc2cccc(Cl)c2)n1`, the GFP fluorescence (kMESF) was 18.9% (inactive).
Take `CNc1nc(N)c([N+](=O)[O-])c(Nc2cccc(OC)c2)n1`: the GFP fluorescence (kMESF) was 22.9% (inactive).
Turning to `CNc1nc(NC)c([N+](=O)[O-])c(Nc2cccc(Cl)c2)n1`, the GFP fluorescence (kMESF) was 23.3% (inactive).
As to `CNc1nc(N)c([N+](=O)[O-])c(Nc2cccc(Oc3ccccc3)c2)n1`, the GFP fluorescence (kMESF) is 23% (inactive).
With `CNc1nc(N)c([N+](=O)[O-])c(Nc2ccccc2F)n1`, the GFP fluorescence (kMESF) was 24.8% (inactive).
Same read-out and setting: the result for `CNc1nc(NC2CCCCC2)c([N+](=O)[O-])c(N2CCOCC2)n1` reads 21.9% (inactive).
The same measure, in the same setting: the result for `CNc1nc(N)c([N+](=O)[O-])c(Nc2cccc(Br)c2)n1` reads 24% (inactive).

Still in this assay, the particulars now being: S. cerevisiae RPL19A-GFP strain, flow cytometry fluorescence, 3 h; at 300 µM (top of the series).
`CCOC(=O)c1c(N)nc(NC)nc1Nc1cccc(F)c1`: the GFP fluorescence (kMESF) was 29.8% (inactive).
Same read-out and setting: the result for `COc1cccc(-c2cc(Nc3cc(C)[nH]n3)nc(NCc3ccccc3)n2)c1` reads 32.4% (inactive); that for `CNc1nc(N)cc(Nc2ccccc2F)n1`, 32% (inactive).
Same read-out and setting: the result for `O=[N+]([O-])c1c(NC2CCCCC2)nc(NCc2ccccc2)nc1N1CCOCC1` reads 29.5% (inactive); that for `Cc1cc(Nc2cc(Nc3ccccc3)nc(NCc3ccccc3)n2)n[nH]1`, 30% (inactive).
Same read-out and setting: the result for `Cc1cc(Nc2cc(-c3ccccc3)nc(NCc3ccccc3)n2)n[nH]1` reads 31.4% (inactive).
Take `COc1ccccc1-c1cc(Nc2cc(C)[nH]n2)nc(NCc2ccccc2)n1`: the GFP fluorescence (kMESF) was 30% (inactive).
With `CNc1nc(N)cc(Oc2cccc(Cl)c2)n1`, the GFP fluorescence (kMESF) is 32.2% (inactive).
Consider `COC(=O)c1cccc(-c2cc(Nc3cc(C)[nH]n3)nc(NCc3ccccc3)n2)c1`, for which the GFP fluorescence (kMESF) is 32.9% (inactive).
